Data on 16 compounds can be found in patent US20260028354A1, “TETRAHYDRONAPHTHALENE DERIVATIVES AS ESTROGEN RECEPTOR DEGRADERS” (REGENT OF THE UNIVERSITY OF MICHIGAN, priority 2022, published 2026).

One test concerns the target CRBN/DDB1 (Homo sapiens (Human), UniProt Q96SW2). The class given is binding. The conditions noted are these: His tagged CRBN+DDB1, Cy5-labeled Thalidomide probe, one hour; read-out: CRBN HTRF IC50. How it is done: The binding potency was determined using HTRF assay technology (Perkin Elmer). Compounds were serially diluted in DMSO and […] volume was transferred to white 384-well plate.

In another test the target is ER in T47D cells (Homo sapiens (Human), UniProt P03372). Nature of the test: In-cell Western (ICW) ER degradation assay in T47D cells. The class given is cell-based. The conditions noted are these: for DC50: ER degradation. The text has this: In-cell Western (ICW) assays in MCF-7 and T47D cell lines.
Day 3: After 16 hrs of compounds treatment, cells were fixed by 4% PFA and permeabilized with elution buffer (0.1% Triton X-100 in 1% PBS Solution). Subsequently, cells were blocked with Intercept (PBS) Blocking Buffer (Li-COR, Odyssey Blocking Buffer), and were stained with ER (1:500, Cell signaling) primary antibody for overnight at cold room.
Day 4: Remove the buffer, add IRDye 800CW Goat anti-Rabbit IgG Secondary Antibody (1:2000) and CellTag 700 Stain (1:500) in Intercept (PBS) Blocking Buffer. Finally, cell plate is placed in incubator to dry. Image and signal were captured on Odyssey® DLx Imaging System.

The target of another test is ER in MCF-7 cells (Homo sapiens (Human), UniProt P03372). As to the kind of experiment: In-cell Western (ICW) ER degradation assay in MCF-7 cells. The class given is cell-based. Conditions: for DC50: MCF-7, ER degradation, read-out: MCF7 DC50.
The mark [1] stands for this setting: maximal ER degradation, 16 hrs treatment, read-out: T47D Dmax.
The mark [2] stands for this setting: MCF7, MCF-7, maximal ER degradation, 16 hrs treatment, read-out: MCF7 Dmax.
[3] abbreviates: maximal ER degradation, 16 hrs treatment.

Counter-ions that a name gives are not always drawn. Like-named read-outs stand apart in the source and are kept apart here.

Sequence of ER in T47D cells (P03372 whole entry): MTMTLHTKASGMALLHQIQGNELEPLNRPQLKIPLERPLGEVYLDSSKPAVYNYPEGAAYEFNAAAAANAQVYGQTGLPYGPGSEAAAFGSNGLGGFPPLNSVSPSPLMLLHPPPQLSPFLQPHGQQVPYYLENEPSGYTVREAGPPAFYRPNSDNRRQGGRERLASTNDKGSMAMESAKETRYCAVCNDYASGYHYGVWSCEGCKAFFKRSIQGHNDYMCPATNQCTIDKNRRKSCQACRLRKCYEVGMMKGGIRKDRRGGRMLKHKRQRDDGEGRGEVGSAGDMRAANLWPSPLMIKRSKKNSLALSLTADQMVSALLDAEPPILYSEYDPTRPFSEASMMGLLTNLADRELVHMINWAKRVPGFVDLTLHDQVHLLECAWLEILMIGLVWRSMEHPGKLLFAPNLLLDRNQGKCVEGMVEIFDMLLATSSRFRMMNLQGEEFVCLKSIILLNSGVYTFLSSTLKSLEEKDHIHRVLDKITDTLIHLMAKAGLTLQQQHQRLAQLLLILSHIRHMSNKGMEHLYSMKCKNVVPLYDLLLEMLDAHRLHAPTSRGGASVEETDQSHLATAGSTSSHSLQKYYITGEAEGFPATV
Sequence of ER in MCF-7 cells (P03372 whole entry): as above
Sequence of CRBN/DDB1 (Q96SW2 whole entry, species assumed): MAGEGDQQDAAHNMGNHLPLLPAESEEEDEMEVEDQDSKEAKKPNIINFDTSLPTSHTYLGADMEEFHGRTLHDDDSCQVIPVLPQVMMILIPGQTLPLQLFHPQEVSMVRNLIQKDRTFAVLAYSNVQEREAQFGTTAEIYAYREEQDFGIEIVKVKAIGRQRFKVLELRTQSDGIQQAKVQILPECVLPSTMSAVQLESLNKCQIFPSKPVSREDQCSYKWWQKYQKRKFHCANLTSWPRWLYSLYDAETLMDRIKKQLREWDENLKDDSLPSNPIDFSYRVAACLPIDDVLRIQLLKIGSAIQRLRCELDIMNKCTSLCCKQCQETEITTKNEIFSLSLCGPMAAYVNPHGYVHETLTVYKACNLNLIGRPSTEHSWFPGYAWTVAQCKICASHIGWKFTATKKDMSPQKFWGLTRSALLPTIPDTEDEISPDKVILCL
Sequence of CRBN/DDB1 (Q16531 whole entry partner, species assumed): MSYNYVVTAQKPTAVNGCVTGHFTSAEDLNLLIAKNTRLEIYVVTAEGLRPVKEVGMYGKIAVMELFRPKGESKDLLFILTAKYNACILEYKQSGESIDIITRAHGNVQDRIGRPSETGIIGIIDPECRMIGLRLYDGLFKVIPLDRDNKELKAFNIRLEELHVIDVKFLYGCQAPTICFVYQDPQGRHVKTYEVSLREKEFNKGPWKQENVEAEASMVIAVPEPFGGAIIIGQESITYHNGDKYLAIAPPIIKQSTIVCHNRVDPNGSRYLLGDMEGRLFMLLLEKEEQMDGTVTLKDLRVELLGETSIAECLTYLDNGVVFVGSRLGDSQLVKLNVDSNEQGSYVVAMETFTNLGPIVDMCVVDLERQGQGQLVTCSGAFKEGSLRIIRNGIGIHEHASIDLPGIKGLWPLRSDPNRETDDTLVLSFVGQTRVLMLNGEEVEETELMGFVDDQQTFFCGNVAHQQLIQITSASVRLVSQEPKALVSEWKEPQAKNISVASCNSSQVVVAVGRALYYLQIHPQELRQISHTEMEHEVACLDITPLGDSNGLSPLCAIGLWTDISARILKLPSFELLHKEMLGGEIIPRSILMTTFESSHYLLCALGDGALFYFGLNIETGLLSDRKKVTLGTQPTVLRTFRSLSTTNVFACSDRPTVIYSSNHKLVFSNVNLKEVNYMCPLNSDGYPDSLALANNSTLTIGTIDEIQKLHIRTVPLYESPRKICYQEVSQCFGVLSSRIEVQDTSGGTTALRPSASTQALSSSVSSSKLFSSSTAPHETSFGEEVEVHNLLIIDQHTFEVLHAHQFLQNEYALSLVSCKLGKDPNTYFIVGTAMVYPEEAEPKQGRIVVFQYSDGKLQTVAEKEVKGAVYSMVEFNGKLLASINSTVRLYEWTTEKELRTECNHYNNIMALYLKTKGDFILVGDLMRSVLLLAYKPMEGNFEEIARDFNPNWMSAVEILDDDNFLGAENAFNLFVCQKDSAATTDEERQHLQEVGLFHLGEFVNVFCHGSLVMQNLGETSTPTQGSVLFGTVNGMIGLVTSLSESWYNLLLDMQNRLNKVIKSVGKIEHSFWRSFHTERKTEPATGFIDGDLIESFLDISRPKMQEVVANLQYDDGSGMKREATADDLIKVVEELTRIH

One may read the IC50 as the concentration that inhibits the measured activity by half. Usually DC50 stands for the concentration at which degradation of the target reaches its halfway point. Usually Dmax stands for the greatest extent of degradation seen. As to `COc1cc(N2CCC3(CC2)CC(CN2CCN4c5cc6c(cc5OC[C@@H]4C2)C(=O)N([C@H]2CCC(=O)NC2=O)C6)CO3)ccc1[C@@H]1c2ccc(O)cc2CC[C@@H]1c1ccccc1` (stereo partly drawn) [Compound A57, (3S)-3-((4aS)-3-((8-(4-((1S,2S)-6-hydroxy-2-phenyl-1,2,3,4-tetrahydronaphthalen-1-yl)-3-methoxyphenyl)-1-oxa-8-aza-spiro[4.5]decan-3-yl)methyl)-8-oxo-1,2,3,4,4a,5,8,10-octa-hydro-9H-pyrazino[1′,2′:4,5] [1,4]oxazino[2,3-f]isoindol-9-yl)pipcridinc-2,6-dionc], the IC50 at CRBN/DDB1 is 50 to 500 nM. Besides, the DC50 is 1 to 10 nM at ER in T47D cells (16 hrs treatment) and 10 to 100 nM on ER in MCF-7 cells (16 hrs treatment). Further, the Dmax on ER in T47D cells (setting [1]) was 50 to 75%; on ER in MCF-7 cells (setting [2]), 25 to 50%.
As to `O=C1CC[C@H](N2Cc3c(ccc4c3OC[C@H]3CN(CC5CC6COCC(C5)N6c5ccc([C@@H]6c7ccc(O)cc7CC[C@@H]6c6ccccc6)cc5)CCN43)C2=O)C(=O)N1` (stereo partly drawn) [Compound A83, (3S)-3-((5aR)-7-((9-(4-((1R, 2S)-6-hydroxy-2-phenyl-1,2,3,4-tetrahydronaphthalen-1-yl)phenyl)-3-oxa-9-azabi-cyclo[3.3.1]nonan-7-yl)meth-yl)-1-oxo-1,3,5,5a,6,7,8,9-octa-hydro-2H-pyrazino[1′,2′:4,5] [1,4]oxazino[2,3-e]isoindol-2-yl)piperidine-2,6-dione], the IC50 on CRBN/DDB1 was 50 to 500 nM. Moreover, the DC50 at ER in T47D cells (16 hrs treatment) is < 1 nM. In addition, the “T47D Dmax” value at ER in T47D cells (setting [3]) is “B (“B”: >50 and <75%)”.
Turning to `O=C1CC[C@H](N2Cc3cc4c(cc3C2=O)OC[C@H]2CN(C[C@H]3COC5(CCN(c6ccc([C@@H]7c8ccc(O)cc8CC[C@@H]7c7ccccc7)cc6)CC5)C3)CCN42)C(=O)N1` (single isomer, unassigned) [Compound A17], the IC50 at CRBN/DDB1 was in the range of 500 to 5000 nM. In addition, the DC50 on ER in T47D cells (16 hrs treatment) and at ER in MCF-7 cells (16 hrs treatment) was 1 to 10 nM in each case. Besides, the Dmax on ER in T47D cells (setting [1]) and at ER in MCF-7 cells (setting [2]) was 25 to 50% in each case.
In the case of `COc1cc(N2CCC(CN3CCC4(CC3)COc3c4ccc4c3CN([C@H]3CCC(=O)NC3=O)C4=O)CC2)ccc1[C@H]1c2ccc(O)cc2CC[C@H]1c1ccccc1` [Compound A36, (R)-3-(1′-((1-(4-((1S,2S)-6-hydroxy-2-phenyl-1,2,3,4-tetrahydronaphthalen-1-yl)-3-methoxyphenyl)piperidin-4-yl)methyl)-6-oxo-6,8-dihydro-2H,7H-spiro[furo[2,3-e]iso-indole-3,4′-piperidin]-7-yl)-piperidine-2,6-dione formate], the IC50 on CRBN/DDB1 was < 50 nM. Also, the DC50 on ER in T47D cells (16 hrs treatment) and on ER in MCF-7 cells (16 hrs treatment) was < 1 nM each time. Also, the Dmax on ER in T47D cells (read-out: T47D Dmax, T47D, maximal ER degradation, 16 hrs treatment) lay within 25 to 50%; on ER in MCF-7 cells (MCF7, read-out: MCF7 Dmax, MCF-7, maximal ER degradation, 16 hrs treatment), 50 to 75%.
For `O=C1CC[C@H](Nc2ccc(C3CCN(C[C@H]4COC5(CCN(c6ccc([C@H]7c8ccc(O)cc8CC[C@H]7c7ccccc7)cc6)CC5)C4)CC3)cc2)C(=O)N1` (single isomer, unassigned) [Compound A49], at CRBN/DDB1, the IC50 was 50 to 500 nM. The DC50 on ER in T47D cells (16 hrs treatment) and on ER in MCF-7 cells (16 hrs treatment) was < 1 nM each time. For the same compound, the Dmax on ER in T47D cells (setting [1]) and on ER in MCF-7 cells (setting [2]) was 50 to 75% throughout.
In the case of `O=C1CC[C@H](N2Cc3cc4c(cc3C2=O)OC[C@@H]2CN(CC3CCC5(CC3)CN(c3ccc([C@@H]6c7ccc(O)cc7CC[C@@H]6c6ccccc6)cn3)C5)CCN42)C(=O)N1` [Compound A124, (S)-3-((S)-3-((2-(5-((1S,2S)-6-hydroxy-2-phenyl-1,2,3,4-tetrahydronaphthalen-1-yl)pyridin-2-yl)-2-azaspiro[3.5]nonan-7-yl)methyl)-8-oxo-1,2,3,4,4a,5,8,10-octahydro-9H-pyrazino[1′,2′: 4,5][1,4]oxazino[2,3-f]isoindol-9-yl)piperidine-2,6-dione], the concentration for half-maximal inhibition (IC50) on CRBN/DDB1 was 500 to 5000 nM. Besides, the DC50 at ER in T47D cells (16 hrs treatment) and at ER in MCF-7 cells (16 hrs treatment) was 10 to 100 nM throughout. Also, the Dmax on ER in T47D cells (setting [1]) lay within 50 to 75%. Further, at ER in MCF-7 cells (MCF-7, maximal ER degradation, 16 hrs treatment), the “MCF7 Dmax” value was “B (“B”: >50 and <75%)”.
Consider `O=C1CC[C@H](N2Cc3cc4c(cc3C2=O)OC[C@H]2CN(C[C@H]3COC5(CCN(c6ccc([C@H]7c8ccc(O)cc8CC[C@H]7c7ccccc7)cc6)CC5)C3)CCN42)C(=O)N1` (single isomer, unassigned) [Compound A19], for which, at CRBN/DDB1, the IC50 fell in the range of 50 to 500 nM. The DC50 on ER in T47D cells (16 hrs treatment) and on ER in MCF-7 cells (16 hrs treatment) was 1 to 10 nM throughout. Besides, the Dmax on ER in T47D cells (setting [1]) and on ER in MCF-7 cells (setting [2]) was 50 to 75% each time.
Consider `COc1cc(N2CCC3(CC2)CC(CN2CCN4c5ccc(C(=O)N[C@H]6CCC(=O)NC6=O)nc5OC[C@@H]4C2)C3)ccc1[C@H]1c2ccc(O)cc2CC[C@H]1c1ccccc1` (single isomer, unassigned) [Compound A107], for which, on CRBN/DDB1, the IC50 was > 5000 nM. Besides, the DC50 at ER in T47D cells (16 hrs treatment) and at ER in MCF-7 cells (16 hrs treatment) was < 1 nM throughout. The Dmax on ER in T47D cells (setting [1]) and at ER in MCF-7 cells (setting [2]) was 50 to 75% throughout.
On to `O=C1CC[C@H](Nc2ccc(C3CCN(C[C@@H]4COC5(CCN(c6ccc([C@H]7c8ccc(O)cc8CC[C@H]7c7ccccc7)cc6)CC5)C4)CC3)cc2)C(=O)N1` (single isomer, unassigned) [Compound A50], for which the IC50 at CRBN/DDB1 was 50 to 500 nM. The DC50 at ER in T47D cells (16 hrs treatment) and on ER in MCF-7 cells (16 hrs treatment) was < 1 nM in each case. Also, the Dmax on ER in T47D cells (setting [1]) and at ER in MCF-7 cells (setting [2]) was 50 to 75% each time.
`O=C1CC[C@@H](Nc2ccc(C3CCN(C[C@@H]4COC5(CCN(c6ccc([C@H]7c8ccc(O)cc8CC[C@H]7c7ccccc7)cc6)CC5)C4)CC3)c(F)c2)C(=O)N1` (single isomer, unassigned) [Compound A60]: the IC50 on CRBN/DDB1 was in the range of 50 to 500 nM. The DC50 at ER in T47D cells (16 hrs treatment) and on ER in MCF-7 cells (16 hrs treatment) was > 100 nM throughout. Further, the results for the Dmax on ER in T47D cells (setting [1]) and on ER in MCF-7 cells (setting [2]) were < 25% and 25 to 50%, respectively.
With `COc1cc([C@@H]2c3ccc(O)cc3CC[C@@H]2c2ccccc2)c(F)cc1N1CCC(CN2CCN3c4ccc5c(c4OC[C@H]3C2)CN([C@H]2CCC(=O)NC2=O)C5=O)CC1` (single isomer, unassigned) [Compound A98], the IC50 at CRBN/DDB1 lay within 50 to 500 nM. Also, the DC50 on ER in T47D cells (16 hrs treatment) lay within 10 to 100 nM. Besides, the “T47D Dmax” value on ER in T47D cells (setting [3]) is given as “C (“C”: 25-50%)”.
In the case of `O=C1CC[C@H](N2Cc3cc4c(cc3C2=O)OCC42CCN(CC3CC4(CCN(c5ccc([C@H]6c7ccc(O)cc7CC[C@H]6c6ccccc6)cn5)CC4)C3)CC2)C(=O)N1` [Compound A125, (S)-3-(1′-((7-(5-((1R,2R)-6-hydroxy-2-phenyl-1,2,3,4-tetra-hydronaphthalen-1-yl)pyridin-2-yl)-7-azaspiro[3.5]nonan-2-yl)methyl)-7-oxo-5,7-dihydro-2H,6H-spiro[furo[2,3-f]iso-indole-3,4′-piperidin]-6-yl)-piperidine-2,6-dionc], the IC50 on CRBN/DDB1 fell in the range of 50 to 500 nM. This compound had a DC50 on ER in T47D cells (16 hrs treatment) of 10 to 100 nM. The “T47D Dmax” value on ER in T47D cells (setting [3]) was “B (“B”: >50 and <75%)”.
As for `COc1cc(C2c3ccc(O)cc3CCC2c2ccccc2)c(F)cc1N1CCC(CN2CCN3c4ccc5c(c4OC[C@H]3C2)CN([C@H]2CCC(=O)NC2=O)C5=O)CC1` (stereo in doubt) [Compound A97, (S)-3-((R)-7-((1-(5-fluoro-4-((1R,2R)-6-hydroxy-2-phenyl-1,2,3,4-tetrahydronaphthalen-1-yl)-2-methoxyphenyl)piperidin-4-yl)methyl)-1-oxo-1,3,5,5a,6,7,8,9-octahydro-2H-pyrazino[1′,2′: 4,5][1,4]oxazino[2,3-e]isoindol-2-yl)piperidine-2,6-dione], the IC50 on CRBN/DDB1 was 50 to 500 nM. Moreover, the DC50 at ER in T47D cells (16 hrs treatment) fell in the range of 1 to 10 nM. Besides, at ER in T47D cells (setting [3]), the “T47D Dmax” value is given as “A (“A”: >=75%)”.
As to `O=C1CC[C@H](N2Cc3c(ccc4c3OC[C@H]3CN(C5CN(CCOc6ccc([C@@H]7c8ccc(O)cc8CC[C@@H]7c7ccccc7)cc6)C5)CCN43)C2=O)C(=O)N1` [Compound A79, (S)-3-((R)-7-(1-(2-(4-((1R,2S)-6-hydroxy-2-phenyl-1,2,3,4-tetrahydronaphthalen-1-yl)-phenoxy)ethyl)azetidin-3-yl)-1-oxo-1,3,5,5a,6,7,8,9-octa-hydro-2H-pyrazino[1′,2′:4,5] [1,4]oxazino[2,3-e]isoindol-2-yl)piperidine-2,6-dione], the IC50 on CRBN/DDB1 was < 50 nM. For the same compound, the Dmax at ER in MCF-7 cells (setting [2]) is 50 to 75%. For the same compound, at ER in MCF-7 cells (16 hrs treatment), the DC50 is < 1 nM.
Consider `O=C1CC[C@H](N2Cc3cc4c(cc3C2=O)OC[C@@H]2CN(CC3CCC5(CC3)CN(c3ncc([C@@H]6c7ccc(O)cc7CC[C@@H]6c6ccccc6)cn3)C5)CCN42)C(=O)N1` (single isomer, unassigned) [Compound A158], for which the IC50 on CRBN/DDB1 was 500 to 5000 nM. The Dmax on ER in MCF-7 cells (setting [2]) is 50 to 75%. At ER in MCF-7 cells (16 hrs treatment), the DC50 was < 1 nM.
Regarding `COc1nc(C(=O)NC2CCC(=O)NC2=O)ccc1N1CCN(CC2CCN(c3ccc([C@@H]4c5ccc(O)cc5CC[C@@H]4c4ccccc4)cc3)CC2)CC1` (single isomer, unassigned) [Compound A1], at CRBN/DDB1, the IC50 is 500 to 5000 nM. On ER in T47D cells (16 hrs treatment), this compound came in with a DC50 of 1 to 10 nM. Also, the Dmax at ER in T47D cells (setting [1]) fell in the range of 25 to 50%.
